In article PMC7845594, “Novel Immune Modulators Enhance Caenorhabditis elegans Resistance to Multiple Pathogens” (mSphere, 2021):

Test system: C. elegans transcriptome
Assay: Transcriptome profiling (Affymetrix microarrays), differentially expressed genes
Assay type: in vivo, Caenorhabditis elegans
Description: To gain additional insight into the effect of LK molecules on C. elegans, young-adult, wild-type worms were treated with each drug at 100 µM for 8 h in the absence of pathogen. RNA was collected, and transcriptome profiling was performed.
Data were determined using Affymetrix microarrays, as described in Materials and Methods. Download Table S3, XLSX file, 0.07 MB.
Transcriptome profiling was performed on ∼6,000 wild-type, young adult worms incubated with either LK molecules or DMSO for 8 h. RNA isolation was performed using TRIzol extraction, followed by cleanup using RNeasy columns according to the manufacturer’s protocol. Each condition was analyzed in triplicate. Microarray data have been deposited in the GEO database, accession number GSE137516. […] Clustering and generation of the heat map was performed using Cluster 3.0 ([98]) and Treeview ([99]), respectively. Fold change of genes were normalized to average fold change of that gene over all clustered conditions. Genes and conditions were clustered using Euclidean distance and average linkages. […] Microarray data for non-LK molecules were collected from GEO omnibus. WormEXP was used as a secondary method for confirming statistical significance of potential pathways stimulated by each of the LK molecules ([100]). Gene ontologies were generated using DAVID ([101], [102]).

[1] = Downregulated genes, Affy_ID 171867_x_at

CNC(=O)Oc1c(Br)cc2sc(=O)oc2c1Br [LK34]
Fold Change (Affy_ID 171867_x_at, listed under genes C09B9.6, F36H12.7, K07F5.1, R05F9.13, R13H9.2, R13H9.4, T13F2.10, T13F2.11, Y59E9AR.1, Y59E9AR.7, ZK354.1, downregulated genes): 0.2366 | Fold Change, gene ZK354.1 [1]: 0.2366 | Fold Change, gene ZK354.10 [1]: 0.2366 | Fold Change, gene ZK354.11 [1]: 0.2366 | Fold Change, gene ZK354.4 [1]: 0.2366 | Fold Change, gene ZK354.5 [1]: 0.2366 | Fold Change, gene ZK525.1 (Downregulated genes, Affy_ID 172214_x_at): 0.3205 | Fold Change, gene ZK484.8 (Downregulated genes, Affy_ID 172381_x_at): 0.3874 | Fold Change, gene ZK546.3 (Downregulated genes, Affy_ID 172798_x_at): 0.1968 | Fold Change, gene ZK131.7 (Downregulated genes, Affy_ID 172871_x_at): 0.3375 | Fold Change, gene ZK546.6 (Downregulated genes, Affy_ID 172900_x_at): 0.1968 | Fold Change, gene ZK669.2 (Downregulated genes, Affy_ID 179491_at): 0.229 | Fold Change, gene ZK550.2 (Downregulated genes, Affy_ID 179513_at): 0.3085 | Fold Change, gene ZK484.5 (Downregulated genes, Affy_ID 182193_at): 0.3399 | Fold Change, gene ZK593.1 (Downregulated genes, Affy_ID 189095_at): 0.4248 | Fold Change, gene ZK666.7 (Downregulated genes, Affy_ID 194066_s_at): 0.02705 | Fold Change (Gene C05C12.3, Affy_ID 183355_s_at, downregulated genes): 0.4055 | Fold Change (Gene M163.1, Affy_ID 177298_at, downregulated genes): 0.426 | Fold Change (Gene R01E6.3, Affy_ID 189628_at, downregulated genes): 0.3684 | Fold Change (Gene R03E9.1, Affy_ID 193723_s_at, downregulated genes): 0.2017 | Fold Change (Gene R03E9.3, Affy_ID 174840_s_at, downregulated genes): 0.4768 | Fold Change (Gene R05F9.3, Affy_ID 172725_x_at, downregulated genes): 0.4019 | Fold Change (Gene R05F9.8, Affy_ID 172724_x_at, downregulated genes): 0.2519 | Fold Change (Gene R05G6.10, Affy_ID 192058_at, downregulated genes): 0.3616 | Fold Change (Gene R12C12.1, Affy_ID 190616_at, downregulated genes): 0.2442 | Fold Change (Gene R12E2.9, Affy_ID 180698_s_at, downregulated genes): 0.3881 | Fold Change (Gene R52.3, Affy_ID 177369_at, downregulated genes): 0.4244 | Fold Change (Gene T01C3.4, Affy_ID 188106_at, downregulated genes): 0.02189 | Fold Change (Gene T02B11.3, Affy_ID 174051_s_at, downregulated genes): 0.4182 | Fold Change (upregulated gene T13H2.4, Affy_ID 183082_s_at): 2.522 | Fold Change (upregulated gene T14F9.3, Affy_ID 173287_s_at): 3.284 | Fold Change (upregulated gene T14G8.1, Affy_ID 193596_s_at): 3.752 | Fold Change (upregulated gene T15B7.3, Affy_ID 188456_at): 3.308 | Fold Change (upregulated gene T19B10.2, Affy_ID 181715_s_at): 5.383 | Fold Change (upregulated gene T20F7.6, Affy_ID 173076_s_at): 3.038 | Fold Change (upregulated gene T21C12.2, Affy_ID 193009_at): 2.072 | Fold Change (upregulated gene T21E3.3, Affy_ID 173760_s_at): 2.777 | Fold Change (upregulated gene T22B7.3, Affy_ID 181552_at): 4.555 | Fold Change (upregulated gene T22B7.7, Affy_ID 173688_s_at): 13.7199 | Fold Change (upregulated gene T22F3.3, Affy_ID 176676_s_at): 2.752 | Fold Change (upregulated gene T24B8.3, Affy_ID 175022_s_at): 3.173 | Fold Change (upregulated gene T24B8.5, Affy_ID 178297_at): 134.612 | Fold Change (upregulated gene T24C4.4, Affy_ID 182815_at): 2.661 | Fold Change (upregulated gene T25G12.5, Affy_ID 174581_s_at): 2.002 | Fold Change (upregulated gene T26C5.1, Affy_ID 190852_at): 2.137 | Fold Change (upregulated gene T27A3.2, Affy_ID 192961_at): 2.203 | Fold Change (upregulated gene T27E4.3, Affy_ID 172901_x_at): 16.0293 | Fold Change (upregulated gene T28D9.3, Affy_ID 187493_at): 2.783 | Fold Change (upregulated gene VZK822L.1, Affy_ID 187997_s_at): 2.806 | Fold Change (upregulated gene W01F3.2, Affy_ID 173274_s_at): 7.505 | Fold Change (upregulated gene W02A2.7, Affy_ID 193943_at): 2.753 | Fold Change (upregulated gene W03C9.7, Affy_ID 194039_s_at): 2.373 | Fold Change (upregulated gene W03F8.10, Affy_ID 174843_at): 5.242 | Fold Change (upregulated gene W03F9.4, Affy_ID 189587_s_at): 16.8516 | Fold Change (upregulated gene W04A8.4, Affy_ID 178654_s_at): 22.7121 | Fold Change (upregulated gene W04B5.1, Affy_ID 180966_s_at): 3.157 | Fold Change (upregulated gene W04B5.3, Affy_ID 173153_s_at): 2.678 | Fold Change (upregulated gene W05G11.6, Affy_ID 192581_s_at): 4.517
